Results reported in patent US20230002372A1, “AZAINDOLE CARBOXAMIDE COMPOUNDS FOR THE TREATMENT OF MYCOBACTERIAL INFECTIONS” (THE GLOBAL ALLIANCE FOR TB DRUG DEVELOPMENT, INC., priority 2019, published 2023).
In brackets after ≈: the same amount, converted by molar mass.

Tested on: M tb H37Rv
Assay: MIC determination against M tb H37Rv (green fluorescent protein reporter assay; MIC-MABA)
Type: cell-based, Mycobacterium tuberculosis
Details: Mycobacterium tuberculosis, H37RV, 240 h, read-out: M. TB H37Rv: MIC-MABA: MIC, M. tb H37Rv; 7H9 broth; 10 days exposure; MIC = lowest concentration inhibiting fluorescence by 90%

| Structure (SMILES) | MIC [µg/mL] |
| --- | --- |
| Cc1nc2[nH]c(C(=O)N[C@@H]3CCC[Si](C)(C)CC3)cc2c(F)c1F (single isomer, unassigned) [MPL-282A] | 0.051 (≈ 0.145 µM) |
| Cc1nc2[nH]c(C(=O)N[C@H]3CCC[Si](C)(C)CC3)cc2c(F)c1F (single isomer, unassigned) [MPL-282B] | 0.197 (≈ 0.56 µM) |
| Cc1nc2[nH]c(C(=O)N[C@@H]3CC[Si](C)(C)C3)cc2c(F)c1F (single isomer, unassigned) [MPL-295A] | 0.22 (≈ 0.68 µM) |
| Cc1nc2[nH]c(C(=O)N[C@H]3CCC[Si](C)(C)CC3)cc2c(F)c1Cl (single isomer, unassigned) [MPL-316B] | 0.25 (≈ 0.679 µM) |
| Cc1cc(Cl)c2cc(C(=O)N[C@@H]3CC[Si](C)(C)C3)[nH]c2n1 (single isomer, unassigned) [MPL-401A] | 0.319 (≈ 0.991 µM) |
| Cc1cc(Cl)c2cc(C(=O)N[C@H]3CC[Si](C)(C)C3)[nH]c2n1 (single isomer, unassigned) [MPL-401B] | 0.007 (≈ 0.0217 µM) |
| O=C(NC1CCC2(CCC2)CC1)c1cc2c(Cl)ccnc2[nH]1 [MPL-001, 4-chloro-N-spiro[3.5]nonan-7-yl-1H-pyrrolo[2,3-b]pyridine-2-carboxamide] | 0.03 (≈ 0.0944 µM) |
| O=C(NC1CCC2(CCC2)CC1)c1cc2c(F)ccnc2[nH]1 [MPL-002, 4-fluoro-N-spiro[3.5]nonan-7-yl-1H-pyrrolo[2,3-b]pyridine-2-carboxamide] | 0.056 (≈ 0.186 µM) |
| CC1(C)CCC(NC(=O)c2cc3c(Cl)cncc3[nH]2)CC1 [MPL-003, 4-chloro-N-(4,4-dimethylcyclohexyl)-1H-pyrrolo[2,3-c]pyridine-2-carboxamide] | 0.01 (≈ 0.0327 µM) |
| C[C@@H]1[C@@H](NC(=O)c2cc3c(Cl)cncc3[nH]2)C[C@H]2C[C@@H]1C2(C)C [MPL-006, 4-chloro-N-[(1S,2S,3S,5R)-2,6,6-trimethylnorpinan-3-yl]-1H-pyrrolo[2,3-c]Pyridine-2-carboxamide] | 0.3 (≈ 0.904 µM) |
| CC1(C)CCC(NC(=O)c2cc3c(Br)ccnc3[nH]2)CC1 [MPL-007, 4-bromo-N-(4,4-dimethylcyclohexyl)-1H-pyrrolo[2,3-b]pyridine-2-carboxamide] | 0.12 (≈ 0.343 µM) |
| C[C@@H]1[C@@H](NC(=O)c2cc3c(C#N)ccnc3[nH]2)C[C@H]2C[C@@H]1C2(C)C [MPL-013, 4-cyano-N-[(1S,2S,3S,5R)-2,6,6-trimethylnorpinan-3-yl]-1H-pyrrolo[2,3-b]pyridine-2-carboxamide] | 1.2 (≈ 3.72 µM) |
| COc1ccnc2[nH]c(C(=O)N[C@H]3C[C@H]4C[C@@H]([C@@H]3C)C4(C)C)cc12 [MPL-014, 4-methoxy-N-[(1S,2S,3S,5R)-2,6,6-trimethylnorpinan-3-yl]-1H-pyrrolo[2,3-b]pyridine-2-carboxamide] | 5.4 (≈ 16.5 µM) |
| C[C@@H]1[C@@H](NC(=O)c2cc3c(C(F)(F)F)ccnc3[nH]2)C[C@H]2C[C@@H]1C2(C)C [MPL-015, 4-(trifluoromethyl)-N-[(1S,2S,3S,5R)-2,6,6-trimethylnorpinan-3-yl]-1H-pyrrolo[2,3-b]pyridine-2-carboxamide] | 0.044 (≈ 0.12 µM) |
| Cc1ccnc2[nH]c(C(=O)N[C@H]3C[C@H]4C[C@@H]([C@@H]3C)C4(C)C)cc12 [MPL-016, 4-methyl-N-[(1S,2S,3S,5R)-2,6,6-trimethylnorpinan-3-yl]-1H-pyrrolo[2,3-b]pyridine-2-carboxamide] | 0.38 (≈ 1.22 µM) |
| CC1(C)CCC(NC(=O)c2cc3c(C4CC4)ccnc3[nH]2)CC1 [MPL-017, 4-cyclopropyl-N-(4,4-dimethylcyclohexyl)-1H-pyrrolo[2,3-b]pyridine-2-carboxamide] | 0.72 (≈ 2.31 µM) |
| Cc1cc(C)c2cc(C(=O)NC3CCC(C)(C)CC3)[nH]c2n1 [MPL-019, N-(4,4-dimethylcyclohexyl)-4,6-dimethyl-1H-pyrrolo[2,3-b]pyridine-2-carboxamide] | 9 (≈ 30.1 µM) |
| CNc1ccnc2[nH]c(C(=O)N[C@H]3C[C@H]4C[C@@H]([C@@H]3C)C4(C)C)cc12 [MPL-023, 4-(methylamino)-N-[(1S,2S,3S,5R)-2,6,6-trimethylnorpinan-3-yl]-1H-pyrrolo[2,3-b]pyridine-2-carboxamide] | 11 (≈ 33.7 µM) |
